What was measured:
HCT-8 cells = test: in vitro proliferating human colon adenocarcinoma (HCA) cell screen, HCT-8; format: cell-based; conditions: HCT-8 cells, 60 to 65 hours, molar concentration for 50% inhibition of growth, read-out: HCA in vitro ID50 avg.
Outline: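 HCT-8 colon adenocarcinoma cells seeded in RPMI 1640 + 10% FCS, grown 48 h, then exposed to compounds for 60-65 h at 37 °C, 5% CO2. Nuclei counted by Coulter counter after lysis; ID50 is the molar concentration giving 50% growth inhibition.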

Alcaligenes viscolactis = test: in vitro antibacterial/antifungal (ABF) agar-disk diffusion assay; format: cell-based; conditions: read-out: ABF zone diameter A. viscol.; for zone of inhibition at 100 µg/mL: dose .1 mg/ml
Method: (§1) (b) Another test protocol is the in vitro antibacterial/antifungal (ABF) test. Compounds are tested for antimicrobial activity in an agar-disk diffusion assay, a standard microbiological technique for testing antibiotics. After incubation of each culture with a test compound, a zone of inhibition is determined. The zone diameter (mm) of active compounds ranges from a minimum of 14 mm to as high as 60 mm, with a greater diameter reflecting higher activity. For convenience, values are reported for (Alcaligenes viscolactis, Sarcina lutea, Branhamella catarrhalis, Bacillus subtilis, and Streptococcus faecalis.

Bacillus subtilis = test: as above; format: cell-based; conditions: for zone of inhibition at 100 µg/mL: dose .1 mg/ml
Method: as §1

Branhamella catarrhalis = test: as above; format: cell-based; conditions: Moraxella catarrhalis, read-out: ABF zone diameter B. catarrh.; for zone of inhibition at 100 µg/mL: dose .1 mg/ml; for zone of inhibition at 500 µg/mL: dose .5 mg/ml
Method: as §1

Sarcina lutea = test: as above; format: cell-based; conditions: Micrococcus luteus, read-out: ABF zone diameter S. lutea; for zone of inhibition at 500 µg/mL: dose .5 mg/ml; for zone of inhibition at 1000 µg/mL: dose 1 mg/ml
Method: as §1

Streptococcus faecalis = test: as above; format: cell-based; conditions: Enterococcus faecalis, read-out: ABF zone diameter S. faecalis; for zone of inhibition at 500 µg/mL: dose .5 mg/ml; for zone of inhibition at 1000 µg/mL: dose 1 mg/ml
Method: as §1

[1] = test system: lymphocytic leukemia P388; test: in vivo lymphocytic leukemia P388 test; parameters: species or system CD2 F1 mice; conditions: Mus musculus, P388, ip, 120 h, intraperitoneally once daily for five days, read-out: P388 in vivo T/C × 100
Outline: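 CD2 F1 mice (6–7 per group) inoculated i.p. with P388 ascitic cells; compound dosed i.p. once daily for 5 consecutive days after inoculation. Survival followed 30 days; efficacy as treated/control survival time ×100 (≥125 criterion); "toxic" if all animals died within 4 days of first dose.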

[2] = Bacillus subtilis, read-out: ABF zone diameter B. subtil.

CCN(CC)CCn1nc2c3c(c([N+](=O)[O-])ccc31)Nc1ccccc1-2 [Example 1, N,N-Diethyl-5-nitropyrazolo[3,4,5-kl]acridine-2(6H)-ethanamine, methanesulfonate (1:1)]
IC50 (HCT-8 cells): 300 nM | zone of inhibition at 100 µg/mL (Alcaligenes viscolactis): 22 mm | zone of inhibition at 100 µg/mL (Bacillus subtilis; [2]): 15 mm | zone of inhibition at 100 µg/mL (Branhamella catarrhalis): 17 mm | zone of inhibition at 100 µg/mL (Sarcina lutea; dose .1 mg/ml): 14 mm | zone of inhibition at 500 µg/mL (Streptococcus faecalis): 17 mm | response vs control in vivo at 2.5 mg/kg ([1]; 2.50 mg/kg): 122% | response vs control in vivo at 5 mg/kg ([1]; 5.00 mg/kg): 163% | response vs control in vivo at 6.25 mg/kg [1]: 165%

CCN(CC)CCn1nc2c3c(c([N+](=O)[O-])ccc31)Nc1ccc(OC)cc1-2 [Example 5, N,N-Diethyl-9-methoxy-5-nitropyrazolo-[3,4,5-kl]acridine-2(6H)-ethanamine, methanesulfonate (1:1)]
IC50 (HCT-8 cells): 120 nM | zone of inhibition at 100 µg/mL (Alcaligenes viscolactis): 18 mm | zone of inhibition at 100 µg/mL (Bacillus subtilis; [2]): 15 mm | zone of inhibition at 100 µg/mL (Branhamella catarrhalis): 16 mm | zone of inhibition at 500 µg/mL (Sarcina lutea): 14 mm | zone of inhibition at 1000 µg/mL (Streptococcus faecalis): 14 mm | response vs control in vivo at 3.12 mg/kg ([1]; 3.12 mg/kg): 143% | response vs control in vivo at 6.25 mg/kg [1]: 158% | response vs control in vivo at 12.5 mg/kg [1]: 197% | response vs control in vivo at 25 mg/kg [1]: 242%

COc1ccc2c(c1)-c1nn(CCN(C)C)c3ccc([N+](=O)[O-])c(c13)N2 [Example 5a, 9-methoxy-N,N-dimethyl-5-nitropyrazolo[3,4,5-kl]acridine-2(6H)=-ethanamine, methanesulfonate]
IC50 (HCT-8 cells): 100 nM | zone of inhibition at 100 µg/mL (Alcaligenes viscolactis): 19 mm | zone of inhibition at 100 µg/mL (Bacillus subtilis; [2]): 14 mm | zone of inhibition at 500 µg/mL (Branhamella catarrhalis): 21 mm | zone of inhibition at 1000 µg/mL (Sarcina lutea): 16 mm | zone of inhibition at 500 µg/mL (Streptococcus faecalis): 15 mm | response vs control in vivo at 12.5 mg/kg [1]: 181% | response vs control in vivo at 25 mg/kg [1]: 228% | response vs control in vivo at 50 mg/kg [1]: 275%

CCN(CC)CCn1nc2c3c(c([N+](=O)[O-])ccc31)N(C)c1ccc(OC)cc1-2 [Example 6, N,N-Diethyl-9-methoxy-6-methyl-5-nitropyrazolo[3,4,5-kl]acridine-2(6H)-ethanamine, monomethanesulfonate]
IC50 (HCT-8 cells): 310 nM | zone of inhibition at 100 µg/mL (Alcaligenes viscolactis): 15 mm | zone of inhibition at 500 µg/mL (Bacillus subtilis; Bacillus subtilis, dose .5 mg/ml, read-out: ABF zone diameter B. subtil.): 19 mm | zone of inhibition at 500 µg/mL (Branhamella catarrhalis): 16 mm | zone of inhibition at 500 µg/mL (Sarcina lutea): 15 mm | zone of inhibition at 1000 µg/mL (Streptococcus faecalis): 15 mm | response vs control in vivo at 6.25 mg/kg [1]: 142% | response vs control in vivo at 12.5 mg/kg [1]: 151% | response vs control in vivo at 25 mg/kg [1]: 173% | response vs control in vivo at 50 mg/kg [1]: 230%

CCN(CC)CCn1nc2ccc([N+](=O)[O-])c3c2c1-c1ccccc1N3 [Example 8, yl-5-nitropyrazolo[3,4,5-kl]acridine-1(6H)-ethanamine, monomethanesulfonate]
zone of inhibition at 100 µg/mL (Alcaligenes viscolactis): 23 mm | ABF zone diameter B. subtil. (Bacillus subtilis; dose not given): 0 mm | zone of inhibition at 10 µg/mL (Branhamella catarrhalis; dose .01 mg/ml): 15 mm | zone of inhibition at 500 µg/mL (Sarcina lutea): 18 mm | zone of inhibition at 500 µg/mL (Streptococcus faecalis): 18 mm | response vs control in vivo at 12.5 mg/kg [1]: 140% | response vs control in vivo at 50 mg/kg [1]: 211%

CCN(CC)CCn1nc2c3c(c([N+](=O)[O-])ccc31)Nc1ccc(O)cc1-2 [Example 10, 2-[2-(Diethylamino)ethyl]-2,6-dihydro-5-nitropyrazolo[3,4,5 kl]acridin-9-ol, monomethanesulfonate]
IC50 (HCT-8 cells): 13 nM | zone of inhibition at 10 µg/mL (Alcaligenes viscolactis; dose .01 mg/ml): 15 mm | zone of inhibition at 100 µg/mL (Bacillus subtilis; [2]): 17 mm | zone of inhibition at 100 µg/mL (Branhamella catarrhalis): 18 mm | zone of inhibition at 1000 µg/mL (Sarcina lutea): 14 mm | zone of inhibition at 500 µg/mL (Streptococcus faecalis): 16 mm | response vs control in vivo at 0.38 mg/kg ([1]; 0.38 mg/kg): 138% | response vs control in vivo at 0.75 mg/kg ([1]; 0.75 mg/kg): 149% | response vs control in vivo at 1.5 mg/kg ([1]; 1.50 mg/kg): 158% | response vs control in vivo at 3 mg/kg ([1]; 3.00 mg/kg): 180%

Reference: US4555572A, “Pyrazolo[3,4,5-kl]acridine compositions and methods for their production and use” (Warner-Lambert Company, priority 1984, dated 1985)
